molecular target: T1, N-terminally GST-tagged human full length recombinant Mps-1 kinase (Homo sapiens, UniProt P33981); assay: Mps-1 kinase assay (TR-FRET); assay type: biochemical; details: Mps1 IC50 [nM], 10 μM ATP, 1 μM peptide substrate, 60 min at 22° C.
T1 construct: N-terminally GST-tagged human full length recombinant Mps-1 kinase; purchased Invitrogen, Karslruhe, Germany PV4071
T1 sequence (P33981 1-857): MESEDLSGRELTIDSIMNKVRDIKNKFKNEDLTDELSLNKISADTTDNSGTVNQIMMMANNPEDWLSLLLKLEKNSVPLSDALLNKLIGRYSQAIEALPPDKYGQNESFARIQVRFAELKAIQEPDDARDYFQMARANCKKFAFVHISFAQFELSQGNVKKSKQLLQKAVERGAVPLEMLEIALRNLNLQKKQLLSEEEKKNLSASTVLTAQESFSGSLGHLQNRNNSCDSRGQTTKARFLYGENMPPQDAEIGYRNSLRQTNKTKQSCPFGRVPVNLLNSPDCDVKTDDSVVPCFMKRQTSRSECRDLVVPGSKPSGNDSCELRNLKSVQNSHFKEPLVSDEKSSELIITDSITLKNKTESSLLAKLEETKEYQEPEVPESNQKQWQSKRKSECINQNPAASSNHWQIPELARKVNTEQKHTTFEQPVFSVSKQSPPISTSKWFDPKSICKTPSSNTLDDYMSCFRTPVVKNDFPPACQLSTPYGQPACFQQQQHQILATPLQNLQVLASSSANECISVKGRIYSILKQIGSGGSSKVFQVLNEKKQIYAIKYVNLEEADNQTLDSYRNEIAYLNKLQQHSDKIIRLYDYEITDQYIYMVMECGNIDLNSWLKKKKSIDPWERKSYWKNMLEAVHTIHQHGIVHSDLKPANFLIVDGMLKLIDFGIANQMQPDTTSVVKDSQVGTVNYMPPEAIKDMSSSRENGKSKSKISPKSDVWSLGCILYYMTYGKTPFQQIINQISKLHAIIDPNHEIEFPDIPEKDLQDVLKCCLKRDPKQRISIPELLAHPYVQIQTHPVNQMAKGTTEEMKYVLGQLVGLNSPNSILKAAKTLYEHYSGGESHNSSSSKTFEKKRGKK
Outline: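 Kinase activity of N-terminally GST-tagged full-length recombinant Mps-1, used at about 1 nM final and set within the linear range, was measured on a biotinylated peptide substrate. Phosphopeptide was detected by TR-FRET from Eu-anti-phospho(Ser/Thr) antibody to streptavidin-XLent after 1 h at 22° C.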

IC50	SMILES
0.3 nM	Cc1cc(-c2cnc3c(NCC4CCOC4)cc(Oc4cccc(F)c4)nn23)ccc1C(=O)NC1CC1 (stereo not drawn) [Example 328, N-cyclopropyl-4-{6-(3-fluorophenoxy)-8-[(tetra-hydrofuran-3-ylmethyl)amino]imidazo[1,2-b]pyridazin-3-yl}-2-methyl-benzamide]
0.2 nM	Cc1cc(-c2cnc3c(NCC(C)(C)O)cc(Sc4ccc(O)cc4)nn23)ccc1C(=O)NC1CC1 [Example 60A, N-cyclopropyl-4-{8-[(2-hydroxy-2-methylpropyl)amino]-6-[(4-hydroxyphenyl)sulfanyl]imidazo[1,2-b]pyridazin-3-yl}-2-methylbenzamide]
1.2 nM	CCNC(=O)c1ccc(-c2cnc3c(NCC(F)F)cc(Oc4ccc(OC)cc4F)nn23)cc1C [Example 605, 4-{8-[(2,2-difluoroethyl)amino]-6-(2-fluoro-4-methoxyphen-oxy)imidazo[1,2-b]pyridazin-3-yl}-N-ethyl-2-methylbenzamide]
72.7 nM	Cc1cc(-c2cnc3c(NCC(O)C(F)(F)F)cc(Cl)nn23)ccc1C(=O)NC1CC1 (racemic) [Example 205, (RS)-4-{6-Chloro-8-[(3,3,3-trifluoro-2-hydroxypropyl)amino]imidazo[1,2-b]pyridazin-3-yl}-N-cyclopropyl-2-methylbenzamide]
0.7 nM	Cc1cc(F)cc(Sc2cc(NCCC(F)(F)F)c3ncc(-c4ccc(C(=O)NC5CC5)c(C)c4)n3n2)c1 [Example 79, N-cyclopropyl-4-{6-[(3-fluoro-5-methylphenyl)sulfanyl]-8-[(3,3,3-trifluoropropyl)amino]imidazo[1,2-b]pyridazin-3-yl}-2-methylbenzamide]
1.1 nM	CSc1cccc(Oc2cc(NCC(C)(C)O)c3ncc(-c4ccc(C(=O)NC5CC5)c(C)c4)n3n2)c1F [Example 458, N-cyclopropyl-4-{6-[2-fluoro-3-(methylsulfanyl)phenoxy]-8-[(2-hydroxy-2-methylpropyl)amino]imidazo[1,2-b]pyridazin-3-yl}-2-methylbenzamide]
0.3 nM	Cc1cc(-c2cnc3c(NCC4CNC4)cc(Oc4ccccc4)nn23)ccc1C(=O)NC1CC1 [Example 315, 4-{8-[(azetidin-3-ylmethyl)amino]-6-phenoxy-imidazo[1,2-b]pyridazin-3-yl}-N-cyclopropyl-2-methylbenzamide]
12.6 nM	COCCNc1cc(NCC(C)(C)O)c2ncc(-c3ccc(C(=O)NC4CC4)c(C)c3)n2n1 [Example 331, N-cyclopropyl-4-{8-[(2-hydroxy-2-methylpropyl)amino]-6-[(2-methoxy-ethyl)amino]imidazo[1,2-b]pyridazin-3-yl}-2-methylbenzamide]
70.6 nM	Cc1cc(-c2cnc3c(NCC(C)(C)O)cc(Oc4ccc(N5CCN(C(=O)OC(C)(C)C)CC5)cc4)nn23)ccc1C(=O)NC1CC1 [Example 322, tert-butyl 4-[4-({3-[4-(cyclopropyl-carbamoyl)-3-methyl-phenyl]-8-[(2-hydroxy-2-methylpropyl)amino]imidazo[1,2-b]pyridazin-6-yl}oxy)phenyl]piperazine-1-carboxylate]
0.2 nM	Cc1cc(F)cc(Nc2cc(NCCC(F)(F)F)c3ncc(-c4ccc(C(=O)NC5CC5)c(C)c4)n3n2)c1 [Example 371, N-cyclopropyl-4-{6-[(3-fluoro-5-methylphenyl)amino]-8-[(3,3,3-trifluoropropyl)amino]imidazo[1,2-b]pyridazin-3-yl}-2-methylbenzamide]
0.3 nM	Cc1cc(-c2cnc3c(NCC4CCSCC4)cc(Oc4ccc(F)cc4)nn23)ccc1C(=O)NC1CC1 [Example 290, N-cyclopropyl-4-{6-(4-fluorophenoxy)-8-[(tetrahydro-2H-thiopyran-4-ylmethyl)amino]imidazo[1,2-b]pyridazin-3-yl}-2-methylbenzamide]
0.4 nM	COc1cccc(Nc2cc(NCC(C)(C)O)c3ncc(-c4ccc(C(=O)NC5CC5)c(C)c4)n3n2)c1C [Example 398, N-cyclopropyl-4-{8-[(2-hydroxy-2-methylpropyl)amino]-6-[(3-methoxy-2-methylphenyl)amino]imidazo[1,2-b]pyridazin-3-yl}-2-methylbenzamide]

Reference: patent US9255100B2 (BAYER INTELLECTUAL PROPERTY GMBH, priority 2010, dated 2016)
